Measurements taken from ChEMBL document CHEMBL1124435, “Evaluation of glycolamide esters and various other esters of aspirin as true aspirin prodrugs” (J Med Chem, 1989).
Values after ≈ are worked out from the molar mass of the structure shown. Blank lines part the entries; values can stand above or below the compound they belong to.

Tests used:
in vitro [1] = details: human, 10% human plasma
Homo sapiens [2] = species: Homo sapiens; experiment: Percentage of aspirin formed during hydrolysis in 10% human plasma at pH 7.4 at 37 degrees celsius
[3] = Observed second order rate constant
[4] = Observed pseudo-first order rate constant
Homo sapiens [5] = species: Homo sapiens; experiment: Percentage of aspirin formed during hydrolysis in undiluted human plasma at pH 7.4 at 37 degrees celsius
[6] = Partition coefficient (logP); details: octanol/water
[7] = (§1) Observed first order rate constant
in vitro [8] = details: human, 10% human plasma, pH 7.4
Description: Michaelis-Menten constant(Km) for hydrolysis in 10% human plasma(pH 7.4) at 37 degrees celsius

[9] = as §1; type: ADME

Structure (SMILES): CCCC(=O)OCOC(=O)c1ccccc1OC(C)=O
half-life (in vitro [1]): 1 min | solubility (physchem): 350 µg/mL (≈ 1.25 mM) | Aspirin formed (Homo sapiens [2]): 0% | K2 [3]: 0.723 min⁻¹ | K obs [4]: 0.723 min⁻¹

Structure (SMILES): CC(=O)Oc1ccccc1C(=O)OCC(=O)N(C(C)C)C(C)C
half-life (in vitro [1]): 15 min | Aspirin formed (Homo sapiens [5]): 21% | Aspirin formed (Homo sapiens [2]): 20% | K2 [3]: 0.037 min⁻¹ | logP [6]: 2.03 | K1 [7]: 0.0092 min⁻¹ | K obs [4]: 0.0462 min⁻¹

Structure (SMILES): CC(=O)Oc1ccccc1C(=O)OCC(=O)N(C1CCCCC1)C1CCCCC1
half-life (in vitro [1]): 20.7 min | Aspirin formed (Homo sapiens [2]): 0% | K2 [3]: 0.0335 min⁻¹ | K obs [4]: 0.0335 min⁻¹

Structure (SMILES): COC(=O)c1ccccc1OC(C)=O
half-life (in vitro [1]): 3.2 min | solubility (physchem): 2810 µg/mL (≈ 14.5 mM) | Aspirin formed (Homo sapiens [2]): 0% | K2 [3]: 0.214 min⁻¹ | logP [6]: 1.46 | K obs [4]: 0.214 min⁻¹

Structure (SMILES): CCOC(=O)CN(C)C(=O)COC(=O)c1ccccc1OC(C)=O
half-life (in vitro [1]): 2 min | solubility (physchem): 960 µg/mL (≈ 2.85 mM) | Aspirin formed (Homo sapiens [2]): 0% | K2 [3]: 0.34 min⁻¹ | logP [6]: 1.67 | K obs [4]: 0.34 min⁻¹

Structure (SMILES): CC(=O)Oc1ccccc1C(=O)Oc1ccccc1
half-life (in vitro [1]): 1.3 min | solubility (physchem): 20 µg/mL (≈ 0.078 mM) | Aspirin formed (Homo sapiens [2]): 0% | K2 [3]: 0.53 min⁻¹ | logP [6]: 2.88 | K obs [4]: 0.53 min⁻¹

Structure (SMILES): CC(=O)Oc1ccccc1C(=O)OCCN(C)C(C)=O
half-life (in vitro [1]): 3.4 min | Aspirin formed (Homo sapiens [2]): 0% | K2 [3]: 0.205 min⁻¹ | K obs [4]: 0.205 min⁻¹

Structure (SMILES): CC(=O)Oc1ccccc1C(=O)OC[S+](C)[O-] (configuration not stated)
half-life (in vitro [1]): 3.3 min | Aspirin formed (Homo sapiens [5]): 31% | solubility (physchem): 4230 µg/mL (≈ 16.5 mM) | Aspirin formed (Homo sapiens [2]): 30% | K2 [3]: 0.145 min⁻¹ | logP [6]: 0.11 | K1 [7]: 0.0621 min⁻¹ | K obs [4]: 0.207 min⁻¹

Structure (SMILES): CSCOC(=O)c1ccccc1OC(C)=O
half-life (in vitro [1]): 1.5 min | solubility (physchem): 550 µg/mL (≈ 2.29 mM) | Aspirin formed (Homo sapiens [2]): 0% | K2 [3]: 0.465 min⁻¹ | logP [6]: 1.94 | K obs [4]: 0.465 min⁻¹

Structure (SMILES): CC(=O)Oc1ccccc1C(=O)OCCN(C)C.Cl
half-life (in vitro [1]): 0.26 min | Km (in vitro [8]): 49 µM | Aspirin formed (Homo sapiens [5]): 8% | solubility (physchem): > 200000 µg/mL | Aspirin formed (Homo sapiens [2]): 6% | K2 [3]: 2.49 min⁻¹ | K1 [7]: 0.159 min⁻¹ | K obs [4]: 2.65 min⁻¹

Structure (SMILES): CC(=O)Nc1ccc(OC(=O)c2ccccc2OC(C)=O)cc1 [BENORILATE]
half-life (in vitro [1]): 1.4 min | solubility (physchem): 20 µg/mL (≈ 0.0638 mM) | Aspirin formed (Homo sapiens [2]): 0% | K2 [3]: 0.487 min⁻¹ | logP [6]: 2.15 | K obs [4]: 0.487 min⁻¹

Structure (SMILES): CC(=O)Oc1ccccc1C(=O)Oc1ccccc1C(=O)O [DIPLOSALSALATE]
half-life (in vitro [1]): 73.7 min | Aspirin formed (Homo sapiens [2]): 0% | K2 [3]: 0.0094 min⁻¹ | K obs [4]: 0.0094 min⁻¹

Other lines, results leading:

half-life (in vitro [1]): 5.1 min | Aspirin formed (Homo sapiens [2]): 0% | K2 [3]: 0.136 min⁻¹ | logP [6]: -0.43 | K obs [4]: 0.136 min⁻¹
Structure (SMILES): CC(=O)Oc1ccccc1C(=O)OCC(=O)NCC(N)=O

half-life (in vitro [1]): 3.3 min | solubility (physchem): 4320 µg/mL (≈ 13.4 mM) | Aspirin formed (Homo sapiens [2]): 0% | K2 [3]: 0.212 min⁻¹ | logP [6]: 0.99 | K obs [4]: 0.212 min⁻¹
Structure (SMILES): CCOC(=O)CNC(=O)COC(=O)c1ccccc1OC(C)=O

half-life (in vitro [1]): 3.3 min | Km (in vitro [8]): 196 µM | Aspirin formed (Homo sapiens [5]): 49% | Aspirin formed (Homo sapiens [2]): 50% | K2 [3]: 0.105 min⁻¹ | logP [6]: 0.38 | K1 [7]: 0.105 min⁻¹ | K obs [4]: 0.209 min⁻¹
Structure (SMILES): CC(=O)Oc1ccccc1C(=O)OCC(=O)N(C)C

half-life (in vitro [1]): 2.2 min | Aspirin formed (Homo sapiens [2]): 0% | K2 [3]: 0.315 min⁻¹ | logP [6]: 1.67 | K obs [4]: 0.315 min⁻¹
Structure (SMILES): CCOC(=O)COC(=O)c1ccccc1OC(C)=O

half-life (in vitro [1]): 7.5 min | Km (in vitro [8]): 380 µM | Aspirin formed (Homo sapiens [2]): 37% | K2 [3]: 0.0582 min⁻¹ | 10E2 K1 [9]: 3.42 min⁻¹ | logP [6]: -0.46 | K obs [4]: 0.0924 min⁻¹
Structure (SMILES): CC(=O)Oc1ccccc1C(=O)OCC(=O)N(C)CC(N)=O

half-life (in vitro [1]): 2.7 min | solubility (physchem): 5520 µg/mL (≈ 20.8 mM) | Aspirin formed (Homo sapiens [2]): 0% | K2 [3]: 0.26 min⁻¹ | logP [6]: 0.9 | K obs [4]: 0.26 min⁻¹
Structure (SMILES): CCNC(=O)COC(=O)c1ccccc1OC(C)=O

half-life (in vitro [1]): 1.8 min | Aspirin formed (Homo sapiens [5]): 28% | solubility (physchem): 2430 µg/mL (≈ 9.63 mM) | Aspirin formed (Homo sapiens [2]): 29% | K2 [3]: 0.28 min⁻¹ | logP [6]: 1.42 | K1 [7]: 0.115 min⁻¹ | K obs [4]: 0.395 min⁻¹
Structure (SMILES): CC(=O)OCOC(=O)c1ccccc1OC(C)=O

half-life (in vitro [1]): 3.8 min | Aspirin formed (Homo sapiens [5]): 40% | Aspirin formed (Homo sapiens [2]): 38% | K2 [3]: 0.114 min⁻¹ | logP [6]: 0.06 | K1 [7]: 0.0699 min⁻¹ | K obs [4]: 0.184 min⁻¹
Structure (SMILES): CC(=O)Oc1ccccc1C(=O)OCC(=O)N(C)CCO
